Reference: ChEMBL document CHEMBL5325461, “Effect of a new squalene synthase inhibitor on an ApoE-/- mouse model of atherosclerosis” (Bioorg Med Chem, 2023)
Active and inactive are the calls of the source. The rule behind the calls is not given here.

Columns and labels:
Mus musculus [1] = assay: Antiatherosclerotic activity in atherogenic western diet fed ApoE-/- C57BL/6 mouse model assessed as reduction in fat deposition in ascending aorta at 56 umol/kg, ip administered twice daily for 3.5 months by H&E staining based analysis; format: functional, organism-based; settings: dose 56.0 µmol/kg
Mus musculus [2] = assay: Antiatherosclerotic activity in atherogenic western diet fed ApoE-/- C57BL/6 mouse model assessed as reduction in atheromatic lesions in aortic arch at 56 umol/kg, ip administered twice daily for 3.5 months by H&E staining based analysis; format: functional, organism-based; settings: dose 56.0 µmol/kg
[3] = Hepatotoxicity in atherogenic western diet fed ApoE-/- C57BL/6 mouse model assessed as effect on ALP level at 56 umol/kg, ip administered twice daily for 3.5 months; format: toxicity, organism-based; settings: in vivo, 2555 h, dose 56 µmol/kg
[4] = Hepatotoxicity in atherogenic western diet fed ApoE-/- C57BL/6 mouse model assessed as edema at 56 umol/kg, ip administered twice daily for 3.5 months; format: toxicity, organism-based; settings: in vivo, 2555 h, dose 56 µmol/kg
[5] = Hepatotoxicity in atherogenic western diet fed ApoE-/- C57BL/6 mouse model assessed as effect on GGT level at 56 umol/kg, ip administered twice daily for 3.5 months; format: toxicity, organism-based; settings: in vivo, 2555 h, dose 56 µmol/kg
Mus musculus [6] = assay: Antihypercholesterolemic activity in atherogenic western diet fed SKH2 mouse model assessed as increase in HDL level at 56 umol/kg, ip administered twice daily for 3.5 months relative to control; format: functional; settings: dose 56 µmol/kg, 2555 h
Mus musculus [7] = assay: Antihypercholesterolemic activity in atherogenic western diet fed SKH2 mouse model assessed as decrease in total cholesterol level at 56 umol/kg, ip administered twice daily for 3.5 months relative to control; format: functional; parameters: scale not given: the % may be the effect or the level left; settings: dose 56 µmol/kg, 2555 h
Mus musculus [8] = assay: Antiatherosclerotic activity in atherogenic western diet fed ApoE-/- C57BL/6 mouse model assessed as reduction in atheromatic spots in aortic arch at 56 umol/kg, ip administered twice daily for 3.5 months by H&E staining based analysis; format: functional, organism-based; settings: dose 56.0 µmol/kg
[9] = Hepatotoxicity in atherogenic western diet fed ApoE-/- C57BL/6 mouse model assessed as increase in SGOT level at 56 umol/kg, ip administered twice daily for 3.5 months; format: toxicity, organism-based; settings: in vivo, 2555 h, dose 56 µmol/kg
[10] = Hepatotoxicity in atherogenic western diet fed ApoE-/- C57BL/6 mouse model assessed as degeneration at 56 umol/kg, ip administered twice daily for 3.5 months; format: toxicity, organism-based; settings: in vivo, 2555 h, dose 56 µmol/kg
Mus musculus [11] = assay: Antiatherosclerotic activity in atherogenic western diet fed ApoE-/- C57BL/6 mouse model assessed as reduction in atheromatic spots in aortic sinus at 56 umol/kg, ip administered twice daily for 3.5 months by H&E staining based analysis; format: functional, organism-based; settings: dose 56.0 µmol/kg
[12] = Toxicity in western diet fed ApoE-/- C57BL/6 mouse model assessed as weight change at 56 umol/kg, ip administered twice daily for 3.5 months; format: organism-based; settings: in vivo, 2555 h, dose 56 µmol/kg
Mus musculus [13] = assay: Antiatherosclerotic activity in atherogenic western diet fed ApoE-/- C57BL/6 mouse model assessed as reduction in area of ascending aorta covered by atheromatic spots/lesions at 56 umol/kg, ip administered twice daily for 3.5 months relative to control; format: functional; parameters: scale not given: the % may be the effect or the level left; settings: dose 56 µmol/kg, 2555 h
Mus musculus [14] = assay: Antiatherosclerotic activity in atherogenic western diet fed ApoE-/- C57BL/6 mouse model assessed as reduction in atheromatic lesions in aortic sinus at 56 umol/kg, ip administered twice daily for 3.5 months by H&E staining based analysis; format: functional, organism-based; settings: dose 56.0 µmol/kg
Mus musculus [15] = assay: Antiatherosclerotic activity in atherogenic western diet fed ApoE-/- C57BL/6 mouse model assessed as decrease in total cholesterol level in plasma at 56 umol/kg, ip administered twice daily for 3.5 months; format: functional, organism-based; settings: dose 56.0 µmol/kg
Mus musculus [16] = assay: Antiatherosclerotic activity in atherogenic western diet fed ApoE-/- C57BL/6 mouse model assessed as reduction in atherosclerosis severity in ascending aorta at 56 umol/kg, ip administered twice daily for 3.5 months by H&E staining based analysis; format: functional, organism-based; settings: dose 56.0 µmol/kg
Mus musculus [17] = assay: Antiatherosclerotic activity in atherogenic western diet fed ApoE-/- C57BL/6 mouse model assessed as effect on HDL/LDL index in plasma at 56 umol/kg, ip administered twice daily for 3.5 months; format: functional, organism-based; settings: dose 56.0 µmol/kg
Mus musculus [18] = assay: Antioxidant activity in atherogenic western diet fed ApoE-/- C57BL/6 mouse model assessed as decrease in MDA level at 56 umol/kg, ip administered twice daily for 3.5 months relative to control; format: functional; parameters: scale not given: the % may be the effect or the level left; settings: dose 56 µmol/kg, 2555 h
Mus musculus [19] = assay: Antihypercholesterolemic activity in atherogenic western diet fed SKH2 mouse model assessed as decrease in LDL level at 56 umol/kg, ip administered twice daily for 3.5 months relative to control; format: functional; parameters: scale not given: the % may be the effect or the level left; settings: dose 56 µmol/kg, 2555 h
Mus musculus [20] = assay: Antiatherosclerotic activity in atherogenic western diet fed ApoE-/- C57BL/6 mouse model assessed as reduction in lesion area in ascending aorta at 56 umol/kg, ip administered twice daily for 3.5 months by H&E staining based analysis; format: functional, organism-based; settings: dose 56.0 µmol/kg
Mus musculus [21] = assay: Antiatherosclerotic activity in atherogenic western diet fed ApoE-/- C57BL/6 mouse model assessed as decrease in total cholesterol level in plasma at 56 umol/kg, ip administered twice daily for 3.5 months relative to control; format: functional; parameters: scale not given: the % may be the effect or the level left; settings: dose 56 µmol/kg, 2555 h
Mus musculus [22] = assay: Antiatherosclerotic activity in atherogenic western diet fed ApoE-/- C57BL/6 mouse model assessed as reduction in perimeter of ascending aorta covered by atheromatic spots/lesions at 56 umol/kg, ip administered twice daily for 3.5 months relative to control; format: functional; parameters: scale not given: the % may be the effect or the level left; settings: dose 56 µmol/kg, 2555 h
Mus musculus [23] = assay: Antiatherosclerotic activity in atherogenic western diet fed ApoE-/- C57BL/6 mouse model assessed as decrease in LDL level in plasma at 56 umol/kg, ip administered twice daily for 3.5 months; format: functional, organism-based; settings: dose 56.0 µmol/kg
[24] = Hepatotoxicity in atherogenic western diet fed ApoE-/- C57BL/6 mouse model assessed as increase in SGPT level at 56 umol/kg, ip administered twice daily for 3.5 months; format: toxicity, organism-based; settings: in vivo, 2555 h, dose 56 µmol/kg
Mus musculus [25] = assay: Antihyperglycemic activity in atherogenic western diet fed ApoE-/- C57BL/6 mouse model assessed as decrease in glucose level at 56 umol/kg, ip administered twice daily for 3.5 months by glucometer analysis relative to control; format: functional; parameters: scale not given: the % may be the effect or the level left; settings: dose 56 µmol/kg, 2555 h
Mus musculus [26] = assay: Antiatherosclerotic activity in atherogenic western diet fed ApoE-/- C57BL/6 mouse model assessed as decrease in LDL level in plasma at 56 umol/kg, ip administered twice daily for 3.5 months relative to control; format: functional; parameters: scale not given: the % may be the effect or the level left; settings: dose 56 µmol/kg, 2555 h

With `Br.CN1CCOC(O)(c2ccc3c(c2)Sc2ccccc2N3)C1` (stereo unspecified) the Activity (Mus musculus [1]) was “Active”, the Activity (Mus musculus [2]) was “Active” and the Activity [3] was “Non-Toxic”. For the same molecule, the Activity [4] was “Non-Toxic”, the Activity [5] was “Non-Toxic” and the Activity (Mus musculus [6]) was >100%. For the same molecule, the Activity (Mus musculus [7]) was 53%, the Activity (Mus musculus [8]) was “Active” and the Activity [9] was “Non-Toxic”. The Activity [10] was “Non-Toxic”, the Activity (Mus musculus [11]) was “Active” and the Activity [12] was “Non-Toxic”. For the same molecule, the Activity (Mus musculus [13]) was 55%, the Activity (Mus musculus [14]) was “Active” and the Activity (Mus musculus [15]) was “Active”. The Activity (Mus musculus [16]) was “Active”, the Activity (Mus musculus [17]) was “Active” and the Activity (Mus musculus [18]) was 41%. The Activity (Mus musculus [19]) was 76%, the Activity (Mus musculus [20]) was “Active” and the Activity (Mus musculus [21]) was 20%. For the same molecule, the Activity (Mus musculus [22]) was 70%, the Activity (Mus musculus [23]) was “Active” and the Activity [24] was “Non-Toxic”. For the same molecule, the Activity (Mus musculus [25]) was 19% and the Activity (Mus musculus [26]) was 20%.
